According to PubChem BioAssay AID248 (DTP/NCI, 2004):
Where “and” joins values, the source holds several entries; their conditions need not be identical. Equal values may be shown once. Toxic doses and inconclusive results are not listed. Rule as the data show it: active = T/C of 150% or more; inactive = T/C below 125%.

System: L1210 leukemia ip in BDF1 mice, survival T/C
Assay: NCI In Vivo Anticancer Drug Screen. Data for tumor model L1210 Leukemia (intraperitoneal) in B6D2F1 (BDF1) mice
Conditions: endpoint: mean survival time, higher = longer survival
Outline: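 Each compound was tested against a transplantable tumor grown in mice. The endpoint was survival, with treated animals benchmarked against vehicle controls as a simple ratio.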

[1] = dose: 100.0 mg/kg/injection, schedule: Q01DX009 (ip), vehicle: Klucel (hydroxypropylcellulose) (HPC)
[2] = dose: 100.0 mg/kg/injection, schedule: Q04DX002 (ip), vehicle: Klucel (hydroxypropylcellulose) (HPC)
[3] = dose: 200.0 mg/kg/injection, schedule: Q01DX009 (ip), vehicle: Klucel (hydroxypropylcellulose) (HPC)
[4] = dose: 200.0 mg/kg/injection, schedule: Q04DX002 (ip), vehicle: Klucel (hydroxypropylcellulose) (HPC)
[5] = dose: 400.0 mg/kg/injection, schedule: Q01DX009 (ip), vehicle: Klucel (hydroxypropylcellulose) (HPC)
[6] = dose: 400.0 mg/kg/injection, schedule: Q04DX002 (ip), vehicle: Klucel (hydroxypropylcellulose) (HPC)
[7] = dose: 100.0 mg/kg/injection, schedule: Q01DX009 (ip), vehicle: saline
[8] = dose: 100.0 mg/kg/injection, schedule: Q04DX003 (ip), vehicle: saline
[9] = dose: 200.0 mg/kg/injection, schedule: Q01DX009 (ip), vehicle: saline
[10] = dose: 200.0 mg/kg/injection, schedule: Q04DX003 (ip), vehicle: saline
[11] = dose: 400.0 mg/kg/injection, schedule: Q01DX009 (ip), vehicle: saline
[12] = dose: 400.0 mg/kg/injection, schedule: Q04DX003 (ip), vehicle: saline
[13] = dose: 100.0 mg/kg/injection, schedule: Q01DX009 (ip), vehicle: saline with Tween-80
[14] = dose: 200.0 mg/kg/injection, schedule: Q01DX009 (ip), vehicle: saline with Tween-80
[15] = dose: 400.0 mg/kg/injection, schedule: Q01DX009 (ip), vehicle: saline with Tween-80
[16] = dose: 10.0 mg/kg/injection, schedule: Q01DX001 (ip), vehicle: saline
[17] = dose: 20.0 mg/kg/injection, schedule: Q01DX001 (ip), vehicle: saline
[18] = dose: 100.0 mg/kg/injection, schedule: Q01DX001 (ip), vehicle: saline
[19] = dose: 200.0 mg/kg/injection, schedule: Q01DX001 (ip), vehicle: saline
[20] = dose: 100.0 mg/kg/injection, schedule: Q04DX003 (ip), vehicle: Klucel (hydroxypropylcellulose) (HPC)
[21] = dose: 200.0 mg/kg/injection, schedule: Q04DX003 (ip), vehicle: Klucel (hydroxypropylcellulose) (HPC)
[22] = dose: 400.0 mg/kg/injection, schedule: Q04DX003 (ip), vehicle: Klucel (hydroxypropylcellulose) (HPC)
[23] = dose: 100.0 mg/kg/injection, schedule: Q04DX003 (ip), vehicle: saline with Tween-80
[24] = dose: 200.0 mg/kg/injection, schedule: Q04DX003 (ip), vehicle: saline with Tween-80
[25] = dose: 400.0 mg/kg/injection, schedule: Q01DX001 (ip), vehicle: saline

Measured: T/C

CCc1ccccc1NC(=O)Nc1ccc(C(=O)O)c(O)c1
inactive: [1] 95 % of control | [2] 98 % of control | [3] 101 % of control | [4] 102 % of control | [5] 108 % of control | [6] 102 % of control

N#CCCN1CCOCC1
inactive: [7] 93 % of control | [8] 97 % of control | [9] 97 % of control | [10] 95 % of control | [11] 95 % of control | [12] 105 % of control

COC1=C(c2ccccc2)P(=O)(Cc2ccccc2)C(C)C1 (stereo not given)
inactive: [2] 108 % of control | [4] 96 % of control | [6] 93 % of control

CN(C)c1ccc(/C=N\N=C/c2ccc(N(C)C)cc2)cc1
inactive: dose: 50.0 mg/kg/injection, schedule: Q01DX009 (ip), vehicle: Klucel (hydroxypropylcellulose) (HPC) 97 % of control | [1] 93 % of control | [3] 103 % of control

COCC(=O)C(C(C)=O)C(c1ccncc1)C(C(C)=O)C(=O)COC (stereo not given)
inactive: [13] 98 % of control | [14] 97 % of control | [15] 93 % of control

O=C1C=C2C=CC3CC2(O1)C1CCCCN31 (stereo not given)
inactive: [16] 105 % of control | [17] 100 % of control | [18] 105 % of control and 102 % of control | [19] 104 % of control and 102 % of control

C[Si](C)(C)c1c(F)c(F)cc(F)c1F
inactive: [1] 98 % of control | [20] 98 % of control | [3] 112 % of control | [21] 95 % of control | [5] 94 % of control | [22] 97 % of control

S=P(=Nc1ccccc1)c1ccccc1 (stereo not given)
inactive: dose: 100.0 mg/kg/injection, schedule: Q01DX001 (ip), vehicle: Klucel (hydroxypropylcellulose) (HPC) 91 % of control | dose: 200.0 mg/kg/injection, schedule: Q01DX001 (ip), vehicle: Klucel (hydroxypropylcellulose) (HPC) 89 % of control | dose: 400.0 mg/kg/injection, schedule: Q01DX001 (ip), vehicle: Klucel (hydroxypropylcellulose) (HPC) 88 % of control

CC1(C)OC2OC(C(O)CO)C(O)C2O1 (stereo not given) (tested in a mixture with another compound)
inactive: dose: 12.5 mg/kg/injection, schedule: Q04DX002 (ip), vehicle: saline 100 % of control | dose: 25.0 mg/kg/injection, schedule: Q04DX002 (ip), vehicle: saline 95 % of control | dose: 50.0 mg/kg/injection, schedule: Q04DX002 (ip), vehicle: saline 95 % of control

COC1=C(Br)C(=O)C(Br)=C(OC)C1=O
inactive: dose: 100.0 mg/kg/injection, schedule: Q04DX002 (ip), vehicle: other 107 % of control | dose: 200.0 mg/kg/injection, schedule: Q04DX002 (ip), vehicle: other 96 % of control

N#CCCN(C(=O)COc1ccc(Cl)cc1Cl)C1CCCCC1
inactive: [1] 95 % of control | [20] 95 % of control | [3] 104 % of control | [21] 100 % of control | [5] 95 % of control

N[n+]1cccc2ccccc21
inactive: [18] 93 % of control | [8] 108 % of control | [19] 108 % of control | [10] 110 % of control

COC(=O)CNC(=O)OCc1ccccc1
inactive: [1] 108 % of control | [20] 101 % of control | [3] 97 % of control | [21] 101 % of control | [5] 96 % of control | [22] 98 % of control

CC(=O)c1c(C)n(C)c2ccccc12
inactive: dose: 100.0 mg/kg/injection, schedule: Q01DX001 (ip), vehicle: saline with Tween-80 103 % of control | [2] 95 % of control | [23] 95 % of control | dose: 200.0 mg/kg/injection, schedule: Q01DX001 (ip), vehicle: saline with Tween-80 101 % of control | [4] 98 % of control | [24] 92 % of control | dose: 400.0 mg/kg/injection, schedule: Q01DX001 (ip), vehicle: saline with Tween-80 103 % of control | [6] 109 % of control | dose: 400.0 mg/kg/injection, schedule: Q04DX003 (ip), vehicle: saline with Tween-80 93 % of control

CN(C)Cc1c[nH]c2ccsc12
inactive: [23] 98 % of control | [24] 87 % of control

CNC(=O)NC(C)(C)CCCCC(C)(C)NC(=O)NC
inactive: dose: 50.0 mg/kg/injection, schedule: Q01DX001 (ip), vehicle: saline 104 % of control | [18] 102 % of control | [19] 93 % of control | [25] 96 % of control

CNC(=O)c1ccccc1C(O)(c1ccccc1)c1ccccc1
inactive: [1] 95 % of control | [20] 94 % of control | [3] 98 % of control | [21] 97 % of control | [5] 101 % of control | [22] 90 % of control

CC1CN(C(=O)Nc2ccc(Cl)cc2)CC(C)O1 (stereo not given)
inactive: [1] 100 % of control | [20] 100 % of control | [3] 101 % of control | [21] 89 % of control | [5] 113 % of control | [22] 97 % of control

O=c1c2ccccc2sc2cccc(Sc3ccccc3)c12
inactive: [13] 101 % of control | [14] 98 % of control | [15] 98 % of control

CCN(CC)Cc1cc(Nc2c3ccc(Cl)cc3nc3ccc(OC)cc23)ccc1O
inactive: [2] 105 % of control | [4] 112 % of control | [6] 108 % of control

CCOP(=O)(Cc1ccc(CP(=O)(OCC)OCC)cc1)OCC
inactive: [8] 105 % of control | [10] 97 % of control | [12] 101 % of control

CCN(CC)C(=O)c1ccncc1
inactive: dose: 50.0 mg/kg/injection, schedule: Q01DX009 (ip), vehicle: saline 101 % of control | [7] 106 % of control and 88 % of control | [9] 97 % of control | [11] 111 % of control

S=C(N/N=C/c1ccc(Cl)cc1Cl)Nc1cccc2cccnc12
inactive: dose: 5.0 mg/kg/injection, schedule: Q01DX001 (ip), vehicle: saline 96 % of control | [16] 96 % of control | [17] 86 % of control | dose: 40.0 mg/kg/injection, schedule: Q01DX001 (ip), vehicle: saline 98 % of control | dose: 80.0 mg/kg/injection, schedule: Q01DX001 (ip), vehicle: saline 90 % of control

COc1ccc(CC(C)=C(C#N)C#N)cc1OC
inactive: dose: 25.0 mg/kg/injection, schedule: Q04DX002 (ip), vehicle: saline with Tween-80 103 % of control | dose: 50.0 mg/kg/injection, schedule: Q04DX002 (ip), vehicle: saline with Tween-80 97 % of control | dose: 100.0 mg/kg/injection, schedule: Q04DX002 (ip), vehicle: saline with Tween-80 97 % of control

CCOCC(O)CO (stereo not given)
inactive: [18] 110 % of control | [19] 98 % of control | [25] 96 % of control
